No end group written: not given here.
Experiments:
C4‐2 xenografts = assay: C4‐2 subcutaneous xenograft, tumor growth; format: in vivo, nude mice; conditions: 2 mg kg^−1, subcutaneous injection, every three days for three weeks, n = 5 per group
Experimental: (§1) Two administration routes were tested in the xenograft models, with subcutaneous injection (SC.) in C4‐2 models and intraperitoneal injection (IP.) in CWR‐22rv1 models. […] Each injection volume was 100 µl and PBS was used as control.
(§2) IHC score analysis was performed by the Image J IHC profiler.
(§3) A) Tumor growth curves of C4‐2 xenografts in nude mice treated as indicated (n = 5 per group). Statistical analysis was performed using the nonparametric Kruskal‐Wallis test; ****, p < 0.0001. The data are presented as the mean ± SD values (n = 5). B) Photos of C4‐2 tumors excised at the end of the experiment after different drug treatments. C) Average weight of tumors excised from each group of mice at the end of drug treatment. The data are presented as the mean ± SD values (n = 5). […] IHC scores were determined with ImageJ: 4, highly positive; 3, positive; 2, minimally positive; 1, negative. […] […]
(§4) Treatment of five groups of mice (5 mice per group) was initiated (i.e., day 1) after tumors were established in 2 weeks as palpable masses (50 mm^3). […] The tumor length and width were measured with calipers, and the tumor volume was calculated using the following equation: tumor volume (V) = length × width^2/2. […] All IHC staining images were scored using ImageJ profiler as published protocol.

CWR22Rv1 xenografts = assay: CWR22Rv1 subcutaneous xenograft, tumor growth; format: in vivo, nude mice; conditions: 2 mg kg^−1, intraperitoneal injection, every three days for three weeks, n = 5 per group
Experimental: as §1, §2, §3, §4

AR ΔDBD = assay: ITC binding to AR ΔDBD; conditions: AR with mutation of amino acids (575‐591) in the DBD
Experimental: To determine the specificity of AR pep‐PROTAC, mutation of amino acids (575‐591) in the AR DBD plasmid was conducted.
ITC (isothermal titration calorimetry) was an established technique that can determine the binding ability between protein and ligands. The signal measured was the heat released upon the interaction of the two reactants. All proteins – MDM2, AR‐V7, or AR ΔDBD were obtained with E.Coli expression and purified by affinity chromatography. All peptides were synthesized by solid‐phase peptide synthesis and purified by preparative high‐performance liquid chromatography. For ITC experiments, clean sample cells and injection syringe were cleaned according to the manufacturer's protocol before loading protein and peptide. Rinse the sample cell several times with 2 ml of buffer. Load the sample cell with 0.2 ml of protein solution (all proteins concentration were around 20 µM), being careful to avoid bubble formation, load the syringe with 0.04 ml peptide solution (all peptides concentrations were around 200 µM). Choose the temperature at 25 °C for the ITC experiments. a small volume (0.4 µl) for the first injection was used and keep the subsequent injections at the desired volume (2 µl for 19 injections). Once the experiment had finished, the ITC data was fitted with the analysis software for the instrument.
Figure S20. Binding affinity between AR pep-PROTAC and AR-ΔDBD measured […]

AR in CWR22rv1 cells = assay: Immunoblot AR degradation, CWR22rv1; format: cell-based; conditions: immunoblot (Figure S16)
Experimental: H, I) IB analysis of WCLs from C4‐2 cells (H) and LNCaP cells (I) treated with CHX for the indicated times, with or without 250 nM Au‐AR DBD PROTAC drug treatment. The signal intensity of AR normalized to that of Vinculin was quantified. […] The signal intensities of AR and AR‐V7 normalized to that of Vinculin were quantified separately.
To investigate the AR cleavage ability of the Au‐AR DBD PROTAC drug, an immunoblot (IB) analysis of AR was performed. The primary antibody (catalog number:sc‐7305) targeting AR we used is raised against amino acids 299–315 of AR, so we could determine both AR and AR‐V7 at the same time.
Immunoblotting was performed to determine the AR amount after Au‐AR DBD PROTAC treatment. Cells were lysed in EBC buffer (50 mM Tris (pH 7.5), 120 mM NaCl, and 0.5% NP‐40) supplemented with protease inhibitors. Cell lysates were quantified by a Pierce bicinchoninic acid (BCA) Protein Assay Kit (Thermo Fisher). Equal amounts of total proteins were loaded for western blotting analysis. The proteins were separated by SDS‐PAGE gels. Then proteins were transferred to polyvinylidene fluoride (PVDF) membranes and incubated with specific primary antibodies at 4 °C overnight. After incubating with HRP‐conjugated secondary antibody for 1 h at room temperature, the protein immunoreactive signals were tested.

With `CNC(=O)c1ccc(N2C(=S)N(c3ccc(C#N)c(C(F)(F)F)c3)C(=O)C2(C)C)cc1F` [enzalutamide] the “effect on tumor growth, C4‐2 xenograft” value (C4‐2 xenografts) was “inhibited tumor growth” and the “effect on tumor growth, CWR22Rv1 xenograft” value (CWR22Rv1 xenografts) was “but not the CWR22Rv1 xenograft model”.
For “YLCSSNNNRERDKFRRGGSGGTSFEQFWAWLWP-NH2 (C-terminus assumed) [AR pep‐PROTAC]”, the “interaction with AR ΔDBD by ITC” value (AR ΔDBD) was “no interaction”.
For `N#Cc1ccc(O[C@H]2CC[C@H](NC(=O)c3ccc(N4CCC(CN5CCN(c6cc7c(cc6F)C(=O)N(C6CCC(=O)NC6=O)C7=O)CC5)CC4)nn3)CC2)cc1Cl` (stereo partly shown) [ARV‐110], the “full‐length AR degradation in CWR22rv1 cells (in words)” value (AR in CWR22rv1 cells) was “induced full‐length AR degradation”.
